Data as given in patent publication US20100015174A1, “METHOD TO CONTROL DENGUE VIRUSES IN HUMANS BY PICOLINIC ACID AND DERIVATIVES THEREOF” (priority 2008, published 2010).
Converted amounts (≈) assume the structure as drawn. “And” between values parts separate entries of the source, which are not always exact repeats. Identical values can stand only once. Like-named read-outs stand apart in the source and are kept apart here.

Experiments:
[1] = test system: HEL cells; test: Toxicity to HEL cells
[2] = test system: Huh7B/Sindbis cells; test: Cytotoxicity by OD in Sindbis replicon cells; type: cell-based; details: concentrations tested
Method: (§1) Here we determine the effects of Picolinic acid and Fusaric Acid on Sindbis replicon in Huh7B/Sindbis cells. The Sindbis replicons were studied by qRTCPCR/iCycler. Normalization by OD and serial dilutions were done in the untreated cell line. The experimental design was as follows: cells were grown in 12 well cell culture plates; the compounds interaction was done for 24 hours; at extraction, cell confluence was 75%; and RNA was extracted using Qiagen Rneasy extraction kit.

[3] = test system: VZV Ellen strain; test: VZV virus yield reduction assay in HEL-299 cells (real-time PCR); type: cell-based, Varicella-Zoster Virus; details: for Total VZV DNA copies (mean) / Total VZV DNA, % of control: 3 days
[4] = test system: HepG2.2.15 cells; test: Toxicity to HepG2.2.15 cells (9-day treatment); type: cell-based
Method: Here we evaluate the antiviral efficacy of picolinic acid and fusaric acid against human hepatitis B virus (HBV). HepG2.2.15 cells, a cell line that was stably transfected with HBV genome was used to study the antiviral effects of PA and FA against HBV. HepG2.2.15 cells were cultured under standard conditions. HepG2.2.15 cells were seeded in a 96-well plate at 2×10^4 cells/well and grown for 24 hours. The medium was replaced with 100 uL of medium containing PA at increasing concentrations (0, 10, 100, 250, and 500 ug/mL). The concentrations of FU used were 0, 1, 10, 30, 60, and 100 ug/mL. The cells were incubated at 37° C. for 9 days. The control medium and the medium containing the antivirals were changed every 24 hours. At day 9, the culture medium containing the released HBV virions was collected, the cells washed with PBS, and lysed with lysis buffer. All samples were stored at −70° C. until analyzed.

[5] = test system: Sindbis replicon; test: Sindbis replicon (qRTCPCR/iCycler) in Huh7B/Sindbis cells; type: cell-based, Sindbis virus; details: for inhibition of Sindbis replicon: at all concentrations tested
Method: as §1

[6] = test system: certain lymphomas, and viral diseases such as Herpes simplex labialis, herpes zoster and papilloma viruses; test: Systemic picolinic acid capsules in humans; type: in vivo; details: 00 gelatin capsules at 500 mg per capsule
From the text: A systemic preparation of picolinic acid, its derivatives or analogs, containing approximately 1% to 100% active ingredient, may be administered orally, intravenously, intramuscularly or by any acceptable route for the treatment of viral systemic infections such as Dengue. […] Likewise, an injectable form may be prepared.

[7] = test system: J2 retrovirus; details: GG2EE transformed macrophages; cited from earlier work

CCCCc1ccc(C(=O)O)nc1 [FA, fusaric acid]
toxicity to HEL cells ([1]; 60 ug/mL): no significant toxicity | overt cytotoxicity by OD [2]: No overt cytotoxicity | Total VZV DNA copies (mean) ([3]; FA 1 μg/ml): 753340 copies | Total VZV DNA, % of control ([3]; FA 1 μg/ml): 77.7 % of control | Total VZV DNA copies (mean) ([3]; FA 10 μg/ml): 685520 copies | Total VZV DNA, % of control ([3]; FA 10 μg/ml): 70.7 % of control | Total VZV DNA copies (mean) ([3]; FA 30 μg/ml): 103405 copies | Total VZV DNA, % of control ([3]; FA 30 μg/ml): 10.7 % of control | Total VZV DNA copies (mean) ([3]; FA 60 μg/ml): 66230 copies | Total VZV DNA, % of control ([3]; FA 60 μg/ml): 6.8 % of control | EC50 ([3]; Human alphaherpesvirus 3, HEL 299, read-out: EC50 against VZV replication, 50% reduction of total VZV DNA copies, HEL-299 cells): ~14 µg/mL (≈ 78.1 µM) | EC90 ([3]; Human alphaherpesvirus 3, HEL 299, read-out: EC90 against VZV replication, total VZV DNA copies, HEL-299 cells): ~41 µg/mL (≈ 229 µM) | toxicity to HepG2.2.15 cells ([4]; 100 ug/ml): 100 ug/ml was toxic to HepG2.2.15 cells. | Sindbis replicon % CTRL ([5]; FA 5, 24 hours): 14.0 % CTRL | Sindbis replicon AVE ([5]; FA 5, 24 hours): 22.7 | Sindbis replicon, single reading ([5]; FA 5, 24 hours): 22.7 and 23.3 and 23.1 and 21.7 | Sindbis replicon % CTRL ([5]; FA 25, 24 hours): 11.6 % CTRL | Sindbis replicon AVE ([5]; FA 25, 24 hours): 22.9 | Sindbis replicon, single reading ([5]; FA 25, 24 hours): 23.0 and 22.7 and 22.4 and 23.5 | Sindbis replicon % CTRL ([5]; FA 50, 24 hours): 9.3 % CTRL | Sindbis replicon AVE ([5]; FA 50, 24 hours): 23.3 | Sindbis replicon, single reading ([5]; FA 50, 24 hours): 22.8 and 23.4 and 22.7 and 24.2 | Sindbis replicon % CTRL ([5]; FA 100, 24 hours): 8.8 % CTRL | Sindbis replicon AVE ([5]; FA 100, 24 hours): 23.5 | Sindbis replicon, single reading ([5]; FA 100, 24 hours): 22.2 and 23.8 and 24.0 and 23.9 | inhibition of Sindbis replicon [5]: > 85%

O=C(O)c1ccccn1 [PA, picolinic acid]
toxicity to HEL cells ([1]; 500 ug/mL): no significant toxicity | overt cytotoxicity by OD [2]: no overt cytotoxicity | control of certain lymphomas and viral diseases in humans [6]: effective | EC50 ([3]; Human alphaherpesvirus 3, 50% reduction of total VZV DNA copies, HEL-299 cells, read-out: EC50 against VZV replication): ~89 µg/mL (≈ 723 µM) | EC90 ([3]; Human alphaherpesvirus 3, total VZV DNA copies, HEL-299 cells, read-out: EC90 against VZV replication): ~505 µg/mL (≈ 4100 µM) | toxicity to HepG2.2.15 cells ([4]; 500 ug/ml): 500 ug/ml was slightly toxic to HepG2.2.15 cells. | J2 retrovirus expression [7]: not affected | Sindbis replicon % CTRL ([5]; PA 100, 24 hours): 6.5 % CTRL | Sindbis replicon AVE ([5]; PA 100, 24 hours): 23.7 | Sindbis replicon, single reading ([5]; PA 100, 24 hours): 24.1 and 23.7 and 23.5 and 23.6 | Sindbis replicon % CTRL ([5]; PA 300, 24 hours): 11.3 % CTRL | Sindbis replicon AVE ([5]; PA 300, 24 hours): 23.3 | Sindbis replicon, single reading ([5]; PA 300, 24 hours): 24.3 and 23.7 and 21.6 | Sindbis replicon % CTRL ([5]; PA 400, 24 hours): 6.7 % CTRL | Sindbis replicon AVE ([5]; PA 400, 24 hours): 23.7 | Sindbis replicon, single reading ([5]; PA 400, 24 hours): 24.0 and 23.5 and 23.2 and 24.3 | inhibition of Sindbis replicon [5]: greater than 90% | Sindbis replicon % CTRL ([5]; column PA 200, 24 hours): 6.5 % CTRL | Sindbis replicon AVE ([5]; column PA 200, 24 hours): 23.8 | Sindbis replicon, single reading ([5]; column PA 200, 24 hours): 24.1 and 22.9 and 24.2
